# Test results reported in patent US9243031B2, “Complex-forming compounds” (priority 2011, dated 2016).
# Entries after “also recorded” stand apart in the source; their conditions may differ. Read-outs that look alike come from different tables or passages of the source.
# Legend:
# [1] = Quantum chemical calculation of the Ca2+ ion changing process (Gaussian09, B3LYP/LANL2DZ); details: ratio of calculated RH values
# Protocol: Since there is no appropriate analytical method for the measurement of the complex-forming properties of these compounds with sufficient accuracy, we determined the complex-forming constants compared to the calcium ion complexes with high level quantum chemical calculations. The calculations were performed using Gaussian09 software on B3LYP/LANL2DZ theoretical level. In course of the calculations frequency calculations were also performed from which thermodynamic data were also determined.
# The ion binding capabilities to each of ions are compared to the calcium binding capabilities, which is shown by RH (relative complex-forming tendency).
# The thermodynamic data (ΔE, ΔH, ΔG) were calculated with mathematical equations from the values of E, H and G counted on quantum chemical basis: ΔE[complex-M]=E[complex-M]+E[CaCl2.6H2O]−{E[complex-Ca]+E[MCl2.6H2O]} ΔH[complex-M]=H[complex-M]+H[CaCl2.6H2O]−{H[complex-Ca]+H[MCl2.6H2O]} ΔG[complex-M]=G[complex-M]+G[CaCl2.6H2O]−{G[complex-Ca]+G[MCl2.6H2O]}
# The relative complex-forming constant (RG) compared to the Ca^2+ ion can be calculated with the following equation: […]
# Since the quotient formation expectedly causes a loss of entropy coefficients, the following equation was used which is more practical due to the fluctuation of the calculated entropy coefficient: […]
# [2] = Measurement of metal selectivity by HPLC-MS (ESI), ratio of metal adduct to Ca adduct signals; type: binding
# Protocol: (§1) Therefore, the measurements of Ca—Sr ionselectivity were carried out with an AGILENT 6140 Octapol MS (mass spectrometer) equipped with an AGILENT 1200 HPLC. The ionization was carried out by using an electron-spray (ESI, MM-FS) soft ionization equipment with positive detection. During the measurements different complex-forming compounds of the formulas (P-1), P-2), (P-3) prepared with the synthesizes shown above and decorporol of the formula (XI) were added to stock solutions, then the solutions were measured with mass spectrometry.
# (§2) The measuring of Ca—Sr ionselectivity was carried out with an AGILENT 6140 Octapol MS (mass spectrometer) equipped with an AGILENT 1200 HPLC. The ionization was carried out by using an electron-spray (ESI, MM-FS) soft ionization equipment with positive detection. The used field strength was 10000V, the spray temperature 220° C., Fragmentor: 70; Treshold: 500, stepsize 0.2 Da; Ionization Switch Delay: 0 ms; Polarity Switch Delay 300 ms; Gain: 1:0; Mass range: 100-1200 Da. Nitrogen gas was used. These parameters were obtained by optimization. The used HPLC column was a 30 mm long WATERS ACQUITY UPLC column with an inner diameter of 2.1 mm and filled with C18 packing of 1.8 um. The amounts of the injected samples were changed between 2-10 ul. The eluents used due to the appropriate ionization were as follows:
# (§3) Eluent A: 0.395 g of NH4HCO3 dissolved in 1 l water+50 ml MeCN.
# (§4) Solution A: 0.1 M Ca ion stock solution: 222.1 mg (2 mmol) of anhydrous CaCl2 are dissolved in 20 ml of distilled water.
# Solution B: 0.1 M Sr ion stock solution: 533.5 mg (2 mmol) of SrCl2.6H2O are dissolved in 20 ml of distilled water.
# (§5) 100 μl of A stock solution and to 100 μl of I, II, III or IV solutions 100 μl of B-G solution are added according to the Table below and the amount of the thus obtained samples are completed to 1 ml, then injected into the HPLC.
# (§6) A minimal retention time of 0.75 minutes was registered in case of the tests with Decorporol. We registered the free complex-forming compound (M+H+DA), the calcium adduct (M−H^++38 Da) and the strontium complex (M−H^++86 Da) in every case. Due to the very similar chemical properties of the Ca ion and the strontium ion it is presumable that they behave similarly during ionization, therefore we have determined the selectivity compared to Ca ion by the ratio of the average mass spectrometry signals of Ca adducts to Sr adducts. In case of the measurements of the physiologically important and toxic metal ions the compound of formula (P-3) was used. The signal of the corresponding metal ion adduct was always well separated from the signal of the mother compound and from the signal of the Ca-adduct.
# [3] = as above; type: binding; remark: listed apart in the source
# [4] = as above; type: binding; details: for binding of Cu ion (in words): HPLC-MS
# Protocol: as §1, §2, §3, §4
# Solution C: 0.1 M Cu ion stock solution: 500.0 mg (2 mmol) of CuSO4.5H2O are dissolved in 20 ml of distilled water.
# as §5, §6
# [5] = as above; type: binding; details: for binding of Zn ion (in words): HPLC-MS
# Protocol: as §1, §2, §3, §4
# Solution D: 0.1 M Zn ion stock solution: 272.5 mg (2 mmol) of ZnCl2 are dissolved in 20 ml of distilled water.
# as §5, §6
# [6] = as above; type: binding; remark: listed apart in the source
# Protocol: as §1
# The measuring of Ca—Sr ionselectivity was carried out with an AGILENT 6140 Octapol MS (mass spectrometer) equipped with an AGILENT 1200 HPLC. The ionization was carried out by using an electron-spray (ESI, MM-FS) soft ionization equipment with positive detection. The used field strength was 10000V, the spray temperature 220° C., Fragmentor: 70; Treshold: 500, stepsize 0.2 Da; Ionization Switch Delay: 0 ms; Polarity Switch Delay 300 ms; Gain: 1:0; Mass range: 100-1200 Da. […]
# A minimal retention time of 0.75 minutes was registered in case of the tests with Decorporol. […] Due to the very similar chemical properties of the Ca ion and the strontium ion it is presumable that they behave similarly during ionization, therefore we have determined the selectivity compared to Ca ion by the ratio of the average mass spectrometry signals of Ca adducts to Sr adducts. […]
# [7] = as above; type: binding; details: for binding of Sn ion (in words): HPLC-MS; for M^2+/Ca^2+ rate: M = Sn
# Protocol: as §1, §2, §3, §4
# Solution E: 0.1 M Sn ion stock solution: 379.6 mg (2 mmol) of SnCl2 are dissolved in 20 ml of distillated water.
# as §5, §6
# [8] = as above; type: binding; details: for binding of Pb ion / palladium (in words): HPLC-MS; for M^2+/Ca^2+ rate / M^2+/Ca^2+ rate, peak of decarboxylated fragment (in brackets): M = Pd
# Protocol: as §1, §2, §3, §4
# Solution F: 0.1 M Pb ion stock solution: 217.0 mg […] of Pb(OOCCF3)2 are dissolved in 5 ml distilled water.
# as §5, §6
# [9] = Decarboxylation observed during the HPLC-MS measurements; type: physicochemical
# Protocol: The decarboxylation, which is characteristic of decorporol, was shown also during the measurements.
# as §2, §6
# This process is well-known and leads to slow degradation of decorporol. The mono-decarboxylated and the double-decarboxylated derivatives are the main contaminants of decorporol and their solubility is very low in water, therefore beyond a certain concentration the complexes could precipitate.
# [10] = mice, compound added intravenously, calcium remained; cited from earlier work
# [11] = during HPLC-MS measurements with metal ions
compound,measurement,setting,value
"2-(2-{16-[(1,2-Dicarboxy-ethylcarbamoil)-methyl]-1,4,10,13-tetraoxa-7,16-diaza-cyclooctadec-7-yl}-acetylamino)-succinic acid [(P-2)]",strontium binding affinity compared to the compound of formula (XI),[1],approximately 4 fold
same,MS peak of the free complex-forming compound compared with the peak of its Sr complex,[2],significantly lower; also recorded: considerably smaller
same,binding of strontium ion (in words),[2],stronger than Ca ion
same,Sr^2+/Ca^2+ rate,[3],1.4
"O=C(CN1CCOCCOCCN(CC(=O)NC(C(=O)O)C(=O)O)CCOCCOCC1)NC(C(=O)O)C(=O)O [(P-1), 2-(2-{16-[(Dicarboxymethyl-carbamoyl)-methyl]-1,4,10,13-tetraoxa-7,16-diaza-cyclooctadec-7-yl}-acetiyamino)-malonic acid]",strontium binding affinity compared to the compound of formula (XI),[1],more than 4 fold
same,MS peak of the free complex-forming compound compared with the peak of its Sr complex,[2],significantly lower; also recorded: considerably smaller
same,Sr^2+/Ca^2+ rate,[3],1.25
"O=C(O)CCC(NC(=O)CN1CCOCCOCCN(CC(=O)NC(CCC(=O)O)C(=O)O)CCOCCOCC1)C(=O)O (stereo not drawn) [(P-3), 2-(2-{16-[(1,3-Dicarboxy-propylcarbamoyl)-methyl]-1,4,10,13-tetraoxa-7,16-diaza-cyclooctadec-7-yl}-acetylamino)-pentanedioic acid]",MS peak of the free complex-forming compound compared with the peak of its Sr complex,[2],significantly lower; also recorded: considerably smaller
same,binding of strontium ion (in words),[2],strongest; also recorded: stronger than Ca ion
same,binding of Cu ion (in words),[4],a little stronger than Ca ion; also recorded: slightly binds
same,M^2+/Ca^2+ rate,[4]; M = Cu,1.1
same,binding of Zn ion (in words),[5],does not bind
same,M^2+/Ca^2+ rate,[5]; M = Zn,ca. 0
same,binding of Fe ion (in words),[6]; HPLC-MS,does not bind
same,M^2+/Ca^2+ rate,[6]; M = Fe,ca. 0
same,binding of Sn ion (in words),[7],very strongly
same,M^2+/Ca^2+ rate,[7],100
same,binding of Pb ion / palladium (in words),[8],very strongly
same,M^2+/Ca^2+ rate,[8],29
same,decarboxylation,[9]; [11],does not decarboxylate
same,Sr^2+/Ca^2+ rate,[3],1.5
"O=C(O)C(C(=O)O)N1CCOCCOCCN(C(C(=O)O)C(=O)O)CCOCCOCC1 [Decorporol, (7,16-bis-malonate)-1,4,10,13-tetraoxa-7,16-diazacyclooctadecane-bis-malonic acid]",MS peak of the free complex-forming compound compared with the peak of its Sr complex,[2]; listed as decorporol,worse; also recorded: lower
same,binding of Cu ion (in words),[4],a bit stronger than the compound of the formula of (P-3)
same,M^2+/Ca^2+ rate,[4]; M = Cu,1.2
same,"M^2+/Ca^2+ rate, peak of decarboxylated fragment (in brackets)",[4]; M = Cu,1.5
same,binding of Zn ion (in words),[5],stronger than Ca
same,binding of Zn ion (in words),[5]; listed as decorporol,Good binding; also recorded: stronger than Ca ions
same,M^2+/Ca^2+ rate,[5]; M = Zn,8
same,"M^2+/Ca^2+ rate, peak of decarboxylated fragment (in brackets)",[5]; M = Zn,4
same,binding of Sn ion (in words),[7],significantly less
same,M^2+/Ca^2+ rate,[7],22
same,binding of Pb ion / palladium (in words),[8],significantly less
same,M^2+/Ca^2+ rate,[8],20
same,"M^2+/Ca^2+ rate, peak of decarboxylated fragment (in brackets)",[8]; first bracketed peak,29
same,"M^2+/Ca^2+ rate, peak of decarboxylated fragment (in brackets)",[8]; second bracketed peak,40
same,decarboxylation,[9]; [11],significant decarboxylation
same,decarboxylation,[9]; in case of Pb ion,very strong decarboxylation process
same,Sr^2+/Ca^2+ rate,[3],1.2
same,removal of strontium from the body,[10],removed selectively
